Values quoted from earlier work, collected in patent publication US12532880B2, “Cryopreservation of cell monolayers” (priority 2018, dated 2026).

Columns and labels:
[1] = system: intact human articular cartilage; settings: chondroitin sulfate added to the vitrification solution
[2] = system: porcine corneal endothelium; settings: endothelium cryopreserved in the presence of 2% CS

chondroitin sulfate [CS]
Cell recovery [1]: 75.4%
Loss of viability in post-thaw culture [2]: 33%
